Consider 1 substance from patent US20260174829A1, “METHODS OF REDUCING TYPE 2 CYTOKINE-MEDIATED INFLAMMATION USING NEUROMEDIN PEPTIDES” (Rutgers, The State University of New Jersey, priority 2018, published 2026).

For one assay, the system named is ILC2s. Kind of assay: RNA sequencing of ILC2s cultured overnight with or without Nmb. In kind it is cell-based, mouse. Conditions: gene expression, NMB treated vs untreated ILC2s. As for the experimental part: To gain further insight into how NMB might alter lymphocyte activation, ILC2s were sort-purified from the lungs of Nb-infected mice and cultured overnight with survival cytokines (IL-2, IL-7), with or without Nmb. Then, gene expression was evaluated by RNA sequencing analysis. […] This allowed for identification of NMB signaling pathways.

Another assay relates to TH2 cells. Put plainly: Anti-CD3/anti-CD28 stimulated lymph node cells (day 7 post-Nb), IL-5/IL-13 ELISA. The class given is cell-based, mouse. Conditions: LN cells day 7 post-Nb, anti-CD3 and anti-CD28, 48 hours, vs media control. As for the experimental part:
FIGS. 7A-7I. Nmb treatment is sufficient to suppress allergic airway inflammation. Mice challenged with papain were treated with PBS or Nmb (i.t.) and (A) Lung ILC2s, (B) IL-5+ and IL-13+ ILC2s, and (C) eosinophils were evaluated. […] Mesenteric lymph nodes (MLNs) were isolated on day 7 post-Nb and single cells suspensions were treated with anti-CD3 and anti-CD28 in the presence or absence of Nmb for 48 hours and (E), IL-5 and (F) IL-13 were quantified in cell-free supernatants by ELISA. (F-I), Modified versions of Nmb (see Table 2) were tested for their ability to alter IL-5 and IL-13 production from anti-CD3 and anti-CD28 MLN cells isolated on day 7 post-Nb. P values were determined by two-tailed Student's t-tests. Blue asterisks represent comparisons between media treated controls and native Nmb. Red asterisks represent comparisons between media treated controls and modified version of Nmb as described in Table 2. (*,p<0.05), (**,p<0.01), (***,p<0.001) or (F-I).
FIGS. 8A-8B. Mesenteric lymph nodes (MLNs) were isolated on day 7 post-Nb and single cells suspensions were treated with anti-CD3 and anti-CD28 in the presence or absence of native Nmb or modified versions of the peptide for 48 hours and (A), IL-5 and (B) IL-13 were quantified in cell-free supernatants by ELISA. P values were determined by two-tailed Student's t-tests. Blue asterisks represent comparisons between media treated controls and native Nmb. Red asterisks represent comparisons between media treated controls and modified version of Nmb as described in Table 2. (*,p<0.05), (**,p<0.01), (***,p<0.001).
At the time points evaluated post-Nb, the majority of the type 2 cytokines are ILC2-derived (14) and any effects Nmb is having on TH2 cell responses may be difficult to detect. To address this, lung-draining LNs were isolated on day 7 post-Nb and stimulated with anti-CD3 and -CD28 to activate T cells in both the presence of absence of recombinant Nmb. LN cells treated with anti-CD3 and -CD28 produced increased amounts of IL-5, and IL-13 (FIGS. 7D, 7E).
Thus, Nmb can be employed to reduce type 2 cytokine-mediated inflammation. Native Nmb is a 10-mer peptide (SEQ ID NO: 1) that operates via its ability to bind the Nmb receptor (15). This example describes the results of an alanine scan to systematically replace various residues of the Nmb with alanine (Table 2) and the resulting ability of the variant Nmb peptides to inhibit type 2 cytokine production by TH2 cells. Further, caps were added to the native form of Nmb (SEQ ID NO: 1) and its bioactivity monitored (FIG. 5A).
In general terms: In an ELISA, binding on a coated surface is turned into a signal by an enzyme label.

Regarding H2N-GNLWATGHFM-amide [Nmb], in the assay with ILC2s, the “Fold change Gm10031” value is given as −6.203, the “Fold change Gm14288” value is given as −25.43, the “Fold change Hgs_2” value is recorded as −1.893 and the “Fold change Ighg1” value is listed as 253.6. For the same substance, in the assay with ILC2s, the “Fold change Ighg2b” value is recorded as 276, the “Fold change Igkv1-135” value is 47.49, the “Fold change Igkv8-28” value is listed as 43.8 and the “Fold change Igkv17-127” value is on record as 800.9. Also, in the assay with ILC2s, the “Fold change Il1b” value came to 3.263, the “Fold change Klra7” value is listed as −1.984, the “Fold change Ly6c2” value was −2.369 and the “Fold change Mcpt2” value is reported as −11.86. In the assay on ILC2s, the “Fold change Nkg7” value was −1.895, the “Fold change P2rx7” value was −2.149, the “Fold change Serpinb2” value turned out to be 5.696 and the “Fold change Sprr2a2” value is listed as 37.85. Besides, in the assay with ILC2s, the “Fold change Tsix” value is reported as 2.833 and the “Fold change Xist” value turned out to be 3.077. In the assay on TH2 cells, the “IL-5 production from activated TH2 cells” value was “significantly reduced” and the “IL-13 production from activated TH2 cells” value was “significantly reduced”. Further, the “IL-5 production from activated TH2 cells” value in the assay with TH2 cells (listed as Native Nmb) is listed as “significantly reduce”. Moreover, in the assay with TH2 cells (listed as native Nmb), the “IL-5 production from activated TH2 cells” value is listed as “sufficient to reduce” and the “IL-13 production from activated TH2 cells” value is reported as “sufficient to reduce”.
